Results from patent US20250051367A1, “HETEROCYCLE-CONTAINING LONP1 INHIBITOR COMPOUNDS, USES AND METHODS” (Pretzel Therapeutics, Inc., priority 2021, published 2025).

The molecules below were run against LONP1 (NM_004793.4) (Homo sapiens (Human), UniProt P36776) (assay: LONP1 FRET-based protease activity assay (fluorogenic peptide substrate)). Settings: substrate 3 μM, LONP1 15 nM, 1 hour at 37° C.; average of a minimum of two repeats.
Type: biochemical
Description: The inhibitory activity of the compounds of the present invention against LONP1, 20S proteasome and other proteases are determined by assays known to persons of ordinary skill in the art (see, e.g., Fishovitz, J. et al. “Active-Site-Directed Chemical Tools for Profiling Mitochondrial Lon Protease” ACS Chem. Biol. 6, 781-788 (2011)).
In this Example, LONP1 (NM_004793.4) activity was measured by a FRET-based assay for protease activity using a fluorogenic peptide DabcylYRGIT(2Abu)SGRQK(5-FAM) (Cambridge Research Biochemicals) as substrate. LONP1 activity is followed by an increase in fluorescence signal due to the degradation of the peptide. Inhibition of LONP1 protease activity by an inhibitor compound of the disclosure elicits a decrease in the fluorescent signal.
The assay is performed in a 384-well plate (Greiner, cat. #781076) using the following reagents and conditions: substrate (3 μM) was incubated for 1 hour at 37° C. in the presence of LONP1 (15 nM as monomer), 25 mM Tris pH 8.0, 10 mM MgCl2, 0.03 mg/mL BSA, 0.5 mM DTT, 0.0003% Tween-20, 10 mM NaCl, 0.06 mM ATP and 0.5 mM EGTA in a 15 μL final volume. The LONP1-containing mix (10 μL) was incubated with the test compound for 15 min at 37° C. before adding the peptide-containing mix (5 μL). Solutions were dispensed using a small cassette-Multidrop Combi (Thermo Scientific). Fluorescence was measured using a PheraStar plate reader (BMG Labtech) FI-FRET EX 485 nm Em 520 nm.
Each value is based on an average of a minimum of two repeats.

Chain of LONP1 (NM_004793.4) (P36776 68-959): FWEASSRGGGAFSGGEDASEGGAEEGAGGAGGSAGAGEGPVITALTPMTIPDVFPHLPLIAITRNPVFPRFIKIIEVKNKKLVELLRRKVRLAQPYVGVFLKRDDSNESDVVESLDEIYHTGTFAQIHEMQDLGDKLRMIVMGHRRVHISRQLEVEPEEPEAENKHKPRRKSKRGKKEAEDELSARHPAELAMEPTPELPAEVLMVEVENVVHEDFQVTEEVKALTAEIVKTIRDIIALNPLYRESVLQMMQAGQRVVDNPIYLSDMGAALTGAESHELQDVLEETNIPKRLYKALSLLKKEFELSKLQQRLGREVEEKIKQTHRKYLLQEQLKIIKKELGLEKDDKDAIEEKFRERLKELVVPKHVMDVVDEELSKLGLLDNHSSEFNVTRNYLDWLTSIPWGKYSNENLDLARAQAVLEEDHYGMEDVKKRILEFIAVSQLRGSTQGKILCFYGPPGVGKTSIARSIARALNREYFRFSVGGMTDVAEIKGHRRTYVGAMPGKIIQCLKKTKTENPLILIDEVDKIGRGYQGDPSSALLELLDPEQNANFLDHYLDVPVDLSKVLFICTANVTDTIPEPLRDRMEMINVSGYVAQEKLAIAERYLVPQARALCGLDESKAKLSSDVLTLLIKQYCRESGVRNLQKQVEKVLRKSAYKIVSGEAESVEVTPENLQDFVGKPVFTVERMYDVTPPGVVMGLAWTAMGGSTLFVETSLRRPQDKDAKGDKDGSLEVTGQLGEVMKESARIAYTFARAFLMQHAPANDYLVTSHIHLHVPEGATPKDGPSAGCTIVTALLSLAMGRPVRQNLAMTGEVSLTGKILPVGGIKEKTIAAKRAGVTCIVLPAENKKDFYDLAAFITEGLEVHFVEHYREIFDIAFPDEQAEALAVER

Row | Structure (SMILES) | IC50
1 | CC(C)C[C@H](NC(=O)[C@H](Cc1nccn1C)NC(=O)c1cnccn1)B(O)O [Compound 9, ((R)-3-methyl-1-((S)-3-(1-methyl-1H-imidazol-2-yl)-2-(pyrazine-2-carboxamido)propanamido)butyl)boronic acid] | 50 to 500 nM
2 | O=C(N[C@@H](Cc1cnco1)C(=O)N[C@@H](CCCc1ccccc1)B(O)O)c1cnccn1 [Compound 6] | < 50 nM
3 | Cn1ccc(C[C@@H](NC(=O)c2cnccn2)C(=O)N[C@H](CCCc2ccccc2)B(O)O)n1 (stereo in doubt) [Compound 4, ((S)-1-((R)-3-(1-methyl-1H-pyrazol-3-yl)-2-(pyrazine-2-carboxamido)propanamido)-4-phenylbutyl)boronic acid] | < 50 nM
4 | O=C(N[C@@H](Cc1nccs1)C(=O)N[C@@H](CCCc1ccccc1)B(O)O)c1cnccn1 [Compound 2, ((R)-4-phenyl-1-((S)-2-(pyrazine-2-carboxamido)-3-(thiazol-2-yl)propanamido)butyl)boronic acid] | < 50 nM
5 | O=C(N[C@H](Cc1cnco1)C(=O)N[C@@H](CCCc1ccccc1)B(O)O)c1cnccn1 [Compound 5, ((R)-1-((R)-3-(oxazol-5-yl)-2-(pyrazine-2-carboxamido)propanamido)-4-phenylbutyl)boronic acid] | < 50 nM
6 | O=C(N[C@@H](Cc1ncco1)C(=O)N[C@@H](CCCc1ccccc1)B(O)O)c1cnccn1 [Compound 11, ((R)-1-((S)-3-(oxazol-2-yl)-2-(pyrazine-2-carboxamido)propanamido)-4-phenylbutyl)boronic acid] | < 50 nM
7 | CC(C)C[C@H](NC(=O)[C@@H](Cc1nccn1C)NC(=O)c1cnccn1)B(O)O [Compound 8, ((R)-3-methyl-1-((R)-3-(1-methyl-1H-imidazol-2-yl)-2-(pyrazine-2-carboxamido)propanamido)butyl)boronic acid] | 50 to 500 nM
8 | Cn1ccnc1C[C@H](NC(=O)c1cnccn1)C(=O)N[C@@H](CCCc1ccccc1)B(O)O [Compound 13, ((R)-1-((S)-3-(1-methyl-1H-imidazol-2-yl)-2-(pyrazine-2-carboxamido)propanamido)-4-phenylbutyl)boronic acid] | 50 to 500 nM
9 | O=C(N[C@H](Cc1ncco1)C(=O)N[C@@H](CCCc1ccccc1)B(O)O)c1cnccn1 [Compound 10, ((R)-1-((R)-3-(oxazol-2-yl)-2-(pyrazine-2-carboxamido)propanamido)-4-phenylbutyl)boronic acid] | < 50 nM
10 | Cn1ccc(C[C@@H](NC(=O)c2cnccn2)C(=O)N[C@@H](CCCc2ccccc2)B(O)O)n1 [Compound 3, ((R)-1-((R)-3-(1-methyl-1H-pyrazol-3-yl)-2-(pyrazine-2-carboxamido)propanamido)-4-phenylbutyl)boronic acid] | < 50 nM
11 | O=C(N[C@H](Cc1c[nH]c2ccccc12)C(=O)N[C@@H](CCCc1ccccc1)B(O)O)c1cnccn1 [Compound 7, ((R)-1-((R)-3-(1H-indol-3-yl)-2-(pyrazine-2-carboxamido)propanamido)-4-phenylbutyl)boronic acid] | 50 to 500 nM
12 | O=C(N[C@H](Cc1nccs1)C(=O)N[C@@H](CCCc1ccccc1)B(O)O)c1cnccn1 [Compound 1, ((R)-4-phenyl-1-((R)-2-(pyrazine-2-carboxamido)-3-(thiazol-2-yl)propanamido)butyl)boronic acid] | < 50 nM
13 | Cn1ccnc1C[C@@H](NC(=O)c1cnccn1)C(=O)N[C@@H](CCCc1ccccc1)B(O)O [Compound 12, ((R)-1-((R)-3-(1-methyl-1H-Imidazol-2-yl)-2-(pyrazine-2-carboxamido)propanamido)-4-phenylbutyl)boronic acid] | < 50 nM
